According to US10106782B2, “High-titer HCV full-length genotype 2B infectious cell culture systems and applications thereof” (Hvidovre Hospital, priority 2013, dated 2018):
Entries after “also recorded” stand apart in the source; their conditions may differ.

Columns and labels:
Huh7.5 cells [1] = assay: Transfection of Huh7.5 cells with RNA transcripts of full-length HCV recombinants; type: cell-based; conditions: for HCV infectivity titers / HCV positive cells detected: after transfection; for spread of infection (≥80% HCV-antigen positive cells): day after transfection
Method: (§1) Transfection and passage of recombinant full-length HCV in Huh7.5 cells. Transfections with RNA transcripts were performed as reported. For viral passage, cell free supernatants were incubated with […] Huh7.5 cells overnight. Cultures were split every 2-3 days and progression of infection was monitored by immunostaining on cells seeded in slides and co-stained with primary antibodies anti-core C7-50 (Enzo Life Sciences) and anti-NS5A 9E108, at dilution 1/25010. Infectivity titers expressed as Log 10 Focus Forming Units (FFU)/mL were determined as described. To improve staining, we used a mixture of anti-core C7- and anti-NS5A 9E10 at dilutions 1/450 and 1/1000, respectively. HCV RNA titers (IU/mL) on passage supernatants with peak infectivity titers were determined as previously described.

[2] = tested on: genotype 2b strain J8 (5th passage J8cc); assay: Antiviral treatment of HCV infected Huh7.5 cultures, high throughput assay, virus J8; type: cell-based, hepatitis C virus; conditions: for inhibition of virus (concentration-response): J8(2b) in Huh7.5 cells, non-cytotoxic drug concentrations
Method: (§2) HCV infected cultures were treated with NS3 Protease, NS5A, and NS5B polymerase inhibitors (purchased from Acme Bioscience) in a high throughput assay. Immunostaining of fixed 96-well plates was performed using anti-core C7- and anti-NS5A 9E10 at dilutions 1/450 and 1/1000, respectively.
(§3) Concentration-response curves and EC50 values were calculated. The non-cytotoxic dose ranges for all drugs were determined with a cytotoxicity assay (CellTiter 96 AQueous One Solution Cell Proliferation Assay, Promega).
(§4) HCV genetic divergence influences the sensitivity to lead direct acting antivirals. Our developed full-length culture systems permit the study of frontline HCV DAAs in the context of the complete HCV life cycle. Thus, we determined the efficacy of DAAs targeting different viral proteins against genotype 1a (strain TN), 2a (strain J6 and recombinant J6core-NS2/JFH18, referred to as JFH1, since it has the JFH1 protease, NS5A and NS5B), and 2b (strains DH8, J8, and DH10). For 2b viruses we used 3rd passage DH8_LSG, 5th passage J8cc, and 3rd passage DH10_LSG (FIGS. 6-10).

[3] = tested on: genotype 1a (strain TN) full-length virus; assay: Antiviral treatment of HCV infected Huh7.5 cultures, high throughput assay, virus TN; type: cell-based, hepatitis C virus; conditions: for EC50 / sensitivity of virus, stated in words: TN(1a), numbers only in FIG. 11; for inhibition of virus (concentration-response): TN(1a) in Huh7.5 cells, non-cytotoxic drug concentrations
Method: as §2, §3, §4

[4] = tested on: 2a recombinant J6core-NS2/JFH1, referred to as JFH1; assay: Antiviral treatment of HCV infected Huh7.5 cultures, high throughput assay, virus JFH1; type: cell-based, hepatitis C virus; conditions: for inhibition of virus (concentration-response): JFH1(2a) in Huh7.5 cells, non-cytotoxic drug concentrations
Method: as §2, §3, §4

[5] = tested on: genotype 2a (strain J6) full-length virus; assay: Antiviral treatment of HCV infected Huh7.5 cultures, high throughput assay, virus J6; type: cell-based, hepatitis C virus; conditions: for inhibition of virus (concentration-response): J6(2a) in Huh7.5 cells, non-cytotoxic drug concentrations; for EC50 / sensitivity of virus, stated in words: J6(2a), numbers only in FIG. 11
Method: as §2, §3, §4

[6] = tested on: genotype 2b strain DH8 (3rd passage DH8_LSG); assay: Antiviral treatment of HCV infected Huh7.5 cultures, high throughput assay, virus DH8; type: cell-based, hepatitis C virus; conditions: DH8(2b) in Huh7.5 cells; non-cytotoxic drug concentrations
Method: as §2, §3, §4

[7] = tested on: genotype 2b strain DH10 (3rd passage DH10_LSG); assay: Antiviral treatment of HCV infected Huh7.5 cultures, high throughput assay, virus DH10; type: cell-based, hepatitis C virus; conditions: DH10(2b) in Huh7.5 cells; non-cytotoxic drug concentrations
Method: as §2, §3, §4

Huh7.5 cells [8] = assay: Viral passage of recombinant full-length HCV to naive Huh7.5 cells; type: cell-based
Method: as §1

| Compound | HCV infectivity titers (Huh7.5 cells [1]) | spread of infection (≥80% HCV-antigen positive cells) (Huh7.5 cells [1]) | inhibition of virus (concentration-response) [3] | inhibition of virus (concentration-response) [4] | inhibition of virus (concentration-response) [5] | inhibition of virus (concentration-response) [6] | inhibition of virus (concentration-response) [2] | inhibition of virus (concentration-response) [7] | further results |
| --- | --- | --- | --- | --- | --- | --- | --- | --- | --- |
| J8_LSG/L758S/A1790T/V1951A/I2440T: efficient J8 virus with authentic NS3 protease, SEQ ID NO 15, KF420339 | 3.8 Log 10 FFU/mL | 5 days | – | – | – | – | – | – | – |
| COc1ccc2c(O[C@@H]3C[C@H]4C(=O)N[C@]5(C(=O)NS(=O)(=O)C6CC6)C[C@H]5/C=C\CCCCN(C)C(=O)[C@@H]4C3)cc(-c3nc(C(C)C)cs3)nc2c1C [Simeprevir] | – | – | – | – | – | – | – | – | EC50 / sensitivity of virus, stated in words ([2]; J8(2b), numbers only in FIG. 11): lower EC50 |
| C=C[C@@H]1C[C@]1(NC(=O)[C@@H]1C[C@@H]2CN1C(=O)[C@H](C(C)(C)C)NC(=O)O[C@@H]1C[C@H]1CCCCCc1nc3ccc(OC)cc3nc1O2)C(=O)NS(=O)(=O)C1CC1 [MK-5172] | – | – | – | – | – | – | – | – | EC50 / sensitivity of virus, stated in words [3]: most sensitive viruses; EC50 / sensitivity of virus, stated in words ([4]; JFH1(2a), numbers only in FIG. 11): most sensitive viruses |
| CC(C)C(=O)OC[C@H]1O[C@@H](n2ccc(N)nc2=O)[C@](C)(F)[C@@H]1OC(=O)C(C)C [Mericitabine] | – | – | inhibited 1a, 2a, and 2b viruses in a dose-dependent manner | inhibited 1a, 2a, and 2b viruses in a dose-dependent manner | inhibited 1a, 2a, and 2b viruses in a dose-dependent manner | inhibited 1a, 2a, and 2b viruses in a dose-dependent manner | inhibited 1a, 2a, and 2b viruses in a dose-dependent manner | inhibited 1a, 2a, and 2b viruses in a dose-dependent manner | EC50 / sensitivity of virus, stated in words [5]: most sensitive virus |
| DH8CF: full-length HCV genotype 2b consensus clone of strain DH8, SEQ ID NO 1, KF420335 | – | – | – | – | – | – | – | – | HCV positive cells detected (Huh7.5 cells [1]): No HCV positive cells were detected |
| CC(C)(C)C#Cc1cc(N(C(=O)[C@H]2CC[C@H](C)CC2)[C@H]2CC[C@H](O)CC2)c(C(=O)O)s1 [VX-222] | – | – | inhibited TN(1a) in a dose dependent manner | no or very limited inhibition; also recorded: not inhibited | no or very limited inhibition; also recorded: not inhibited | no or very limited inhibition; also recorded: not inhibited | no or very limited inhibition; also recorded: not inhibited | no or very limited inhibition; also recorded: not inhibited | EC50 / sensitivity of virus, stated in words [3]: most potent inhibitor |
| J8cc/M292L/L612M/G1154A/N1217Y/Q1763R/I2440T: J8 cell culture, high titer recombinant, SEQ ID NO 14, KF420338 | 4.7 Log 10 FFU/mL | 3 days | – | – | – | – | – | – | – |
| CCc1cc(CC[C@]2(C3CCCC3)CC(O)=C(Cc3nc4nc(C)cc(C)n4n3)C(=O)O2)cc(CC)n1 [Filibuvir] | – | – | inhibited TN(1a) in a dose dependent manner | no or very limited inhibition; also recorded: not inhibited | no or very limited inhibition; also recorded: not inhibited | no or very limited inhibition; also recorded: not inhibited | no or very limited inhibition; also recorded: not inhibited | no or very limited inhibition; also recorded: not inhibited | – |
| DH8_LSG/L884P/V1951A/I2440T/L3021F: efficient full-length infectious DH8 recombinant, SEQ ID NO 7, KF420337 | 3.8 Log 10 FFU/mL | 6 days | – | – | – | – | – | – | HCV infectivity titers (Huh7.5 cells [8]; 2nd passage): 3.9 Log 10 FFU/mL |
| DH8_LSG: DH8CF containing LSG mutations F1468L/A1676S/D3001G, SEQ ID NO:2 | 3.1-3.9 Log 10 FFU/mL | 36 to 53 days | – | – | – | – | – | – | HCV positive cells detected (Huh7.5 cells [1]): ≥ 1 days; HCV infectivity titers (Huh7.5 cells [8]; 1st passage): 3.1-4.2 Log 10 FFU/mL; spread of infection (Huh7.5 cells [8]; 1st viral passage): 5 to 8 days; HCV infectivity titers (Huh7.5 cells [8]; 3rd passage of transfection 1 culture A): 4.7 Log 10 FFU/mL |
| Cn1c(C2(NC(=O)c3ccc4c(C5CCCC5)c(-c5ncc(Br)cn5)n(C)c4c3)CCC2)nc2ccc(/C=C/C(=O)O)cc21 [BI207127] | – | – | inhibit all viruses in a dose dependent manner | inhibit all viruses in a dose dependent manner | inhibit all viruses in a dose dependent manner | inhibit all viruses in a dose dependent manner | inhibit all viruses in a dose dependent manner | inhibit all viruses in a dose dependent manner | EC50 / sensitivity of virus, stated in words [3]: most sensitive virus |
| CC(C)OC(=O)[C@H](C)N[P@](=O)(OC[C@H]1O[C@@H](n2ccc(=O)[nH]c2=O)[C@](C)(F)[C@@H]1O)Oc1ccccc1 [Sofosbuvir] | – | – | inhibited 1a, 2a, and 2b viruses in a dose-dependent manner | inhibited 1a, 2a, and 2b viruses in a dose-dependent manner | inhibited 1a, 2a, and 2b viruses in a dose-dependent manner | inhibited 1a, 2a, and 2b viruses in a dose-dependent manner | inhibited 1a, 2a, and 2b viruses in a dose-dependent manner | inhibited 1a, 2a, and 2b viruses in a dose-dependent manner | EC50 / sensitivity of virus, stated in words [5]: most sensitive virus |
| DH8_LSG/L758S/A1790T/V1951A/I2439T: DH8 full-length recombinant named DH8cc, SEQ ID NO 8, KF420336 | 4.1 Log 10 FFU/mL | 6 days | – | – | – | – | – | – | HCV infectivity titers (Huh7.5 cells [8]; 1st passage): 4.4 Log 10 FFU/mL; HCV infectivity titers (Huh7.5 cells [8]; 2nd passage): 4.3 Log 10 FFU/mL |
